“And” between values parts separate entries of the source, which are not always exact repeats. Equal entries are not always repeated. ± gives the expanded uncertainty stated by the source. Values belong to the compound of their own block, whether it stands above or below them.
Experiment: refractive index (Na D-line) (dimensionless); wn = mass fraction of the nth substance listed
Conditions: 298.15 K, 101 kPa, Liquid, Standard Abbe refractometry

refractive index (w1 = 0.0971): 1.3426 ± 0.0008
SMILES: CC(C)(C)O [2-methylpropan-2-ol] + O

refractive index (w1 = 0.0982): 1.3431 ± 0.0008
SMILES: CCC(C)O (stereo unspecified) [butan-2-ol] + O

refractive index (w1 = 0.0401): 1.3393 ± 0.0008
refractive index (w1 = 0.0452): 1.3404 ± 0.0008
refractive index (w1 = 0.0472): 1.34 ± 0.0008 and 1.3403 ± 0.0008
SMILES: O=C([O-])[C@H](O)[C@@H](O)C(=O)[O-].[Na+].[Na+] [disodium L-tartrate] + O

refractive index (w1 = 0.0949): 1.3413 ± 0.0008
SMILES: CCCO [propan-1-ol] + O

Source: the NIST ThermoML archive (doi:10.1021/je300533r)
